Measured values reported in patent US7521447B2, “P38 inhibitors and methods of use thereof” (Array Biopharma Inc., priority 2003, dated 2009).

Tests used:
[1] = molecular target: activated p38α enzyme (Homo sapiens, UniProt Q16539); test: p38 Biochemical Assay; parameters: key: An “active” compound is defined as a compound having an IC50 below 500 nM; settings: 5 nM activated p38α, 1 uM ATF-2 substrate, 10 μM ATP
Procedure: P38 activity was assayed at room temperature in a 100 μl reaction containing 5 nM activated p38α enzyme and 1 uM ATF-2 (Activating Transcription Factor 2 fusion protein) as the substrate in 25 mM HEPES (pH 7.4), 100 μM Vanadate, 1 mM DTT, 10 mM MgCl2 and 10 μM [[…]-^33P]-ATP (˜0.1 μCi P^33/reaction). The reaction was terminated after 30-40 minutes by adding 25% TCA, let stand for 5 minutes and then transferred directly to a GF-B membrane filter plate. The filter was washed twice for 30 seconds with 0.5% phosphoric acid using a Tomtec Mach III Automated Harvestor. After washing, the vacuum was continued for 30 seconds to dry the filter. Approximately 30 μl of scintillant was added per well to the filter plate and then read in a Liquid Scintillation Counter (Packard TopCount HTS).

[2] = tested on: LPS-induced TNF-α secretion from human peripheral blood mononuclear cells (PBMC); test: PBMC Assay: inhibition of LPS-induced TNF-α secretion; format: cell-based; parameters: key: An “active” compound is defined as a compound having an IC50 below 500 nM; settings: LPS-stimulated human PBMC, TNF-α ELISA
Procedure: The ability of compounds of this invention to inhibit TNF-α production was assessed by using human peripheral blood mononuclear cells (“PBMC”) which synthesize and secrete TNF-α when stimulated with lipopolysaccharide.
Compound test solutions were made by making 5 fold serial dilutions in DMSO, which dilutions were then diluted to 5× stocks by diluting with MEM, 2% heat inactivated fetal bovine serum (“FBS”), 20 mM HEPES, 2 mM L-glutamine, and 1% penicillin/streptomycin.
PBMC's were isolated from human blood as follows. Whole blood samples were collected from human volunteers into Vacutainer™ CPT from Becton Dickinson. Tubes were mixed and centrifuged at room temperature (18-25° C.) in a horizontal rotor for a minimum of 15 minutes at 1500-1800 RCF (relative centrifugal force). For each donor, the buffy coat layers were pooled into a single tube and washed twice with phosphate buffered saline (“PBS”). The cell pellet was resuspended in MEM, 2% heat inactivated fetal bovine serum (“FBS”), 20 mM HEPES, 2 mM L-glutamine, and 1% penicillin/streptomycin. Total cell number was determined using a hemocytometer and the cell suspension was adjusted to 2×10^6 cells/mL.
0.1 mL of cell suspension was added to each well of a 96-well cell culture plate. 30 μL of a compound test solution was added, and the cells were incubated in a 37° C./5% CO2 incubator for 1 hour. 20 μL of 7.5 ng/mL lipopolysaccharide (LPS E. Coli K-235) was then added to each well, and the cells were returned to the 37° C./5% CO2 incubator for 16-20 hours. The cells were centrifuged for 15 minutes at 1100 RCF. Approximately 0.12 mL of the supernatant was transferred into a clean 96 well polypropylene plate. The samples were either assayed immediately or were stored at −80° C. until ready for assay. TNF-α levels were determined in each sample using a human TNF-α ELISA assay such as that described below.
TNF-α levels were determined using the following assay. TNF-alpha antibody coated plates were prepared by adding 150 μL of 2 μg/mL anti-TNF-α purified mouse monoclonal IgG in Carbonate-Bicarbonate buffer (BupH™ Carbonate-Bicarbonate Buffer Pack) to wells of a 96-well Immulon 4 plate (Immulon 4 ELISA Flat Bottom Plate; Dynex, catalog number 011-010-3855) and incubated overnight at 2-8° C. Coating solution was removed and 200 μL of “blocking buffer” (20 mM HEPES pH 7.4, 150 mM NaCl, 2% BSA) was added and plates were stored 2-8° C. until ready to use. A ten-point recombinant human TNF-α standard curve was prepared by a 1:2 serial dilution in “sample diluent” (20 mM HEPES, pH 7.4, 150 mM NaCl, 2 mM MgCl2, 1% BSA) with a top concentration of 6000 pg/mL.
Blocking solution was removed from TNF-α ELISA plates by washing five times with 300 μL of “wash buffer” (20 mM HEPES, pH 7.4, 150 mM NaCl, 2 mM MgCl2, 0.02% Tween-20). 50 μL of “sample diluent” was added to all wells, and then either 50 μL of a TNF-α standard curve solution or test compound supernatant was added to all wells. The plate was incubated at room temperature for one hour with shaking (300 rpm). The plate was washed wash five times with 300 μL “wash buffer”. 100 μL of 0.2 μg/mL biotinylated goat anti-human TNF-α in “antibody diluent” (20 mM HEPES, pH 7.4, 150 mM NaCl, 2 mM MgCl2, 1% BSA, 0.02% Tween-20) was added per well, and the plate was incubated at room temperature for one hour with shaking (300 rpm). The plate was washed wash five times with 300 μL “wash buffer” per well. 100 μL of 0.02 μg/mL streptavidin alkaline phosphatase in “antibody diluent” was added per well, and the plate was incubated at room temperature for one hour with shaking (300 rpm). The plate was washed wash five times with 300 μL wash buffer per well. 200 μL of 1 mg/mL pNPP (p-nitrophenyl phosphate) in diethanolamine buffer with 0.5 mM MgCl2 was added per well, and the plate was incubated for 30 to 45 minutes at room temperature with shaking (300 rpm). […]

Sequence of activated p38α enzyme (Q16539 whole entry, the tested form may be a part): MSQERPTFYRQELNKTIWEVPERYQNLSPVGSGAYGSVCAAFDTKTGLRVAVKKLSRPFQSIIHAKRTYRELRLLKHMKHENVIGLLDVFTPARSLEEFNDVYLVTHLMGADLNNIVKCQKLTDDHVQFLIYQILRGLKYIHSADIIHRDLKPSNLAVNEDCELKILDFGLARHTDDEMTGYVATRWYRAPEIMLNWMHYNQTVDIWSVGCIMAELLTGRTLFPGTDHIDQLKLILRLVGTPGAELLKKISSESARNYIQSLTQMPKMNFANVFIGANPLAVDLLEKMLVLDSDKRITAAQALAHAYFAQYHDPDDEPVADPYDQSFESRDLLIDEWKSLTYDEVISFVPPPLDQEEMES

Row | SMILES | p38 Inhibition IC50 (nM) [1] | PBMC IC50 (nM) [2]
1 | CC(C)Cn1ncc2cc(C(=O)c3ccc(Cl)cc3Cl)ccc21 [Compound 5f-9, (2,4-dichlorophenyl)-(1-isobutyl-1H-indazol-5-yl)-methanone] | active | active
2 | CCON=C(c1ccc2c(cnn2CC(C)C)c1)c1ccc(F)cc1F [Compound 7f-3, (2,4-difluorophenyl)-(1-isobutyl-1H-indazol-5-yl)-methanone O-ethyl-oxime] | active | active
3 | CC(C)Cn1ncc2cc(Oc3ccc(F)cc3)c(C(=O)NCCN(C)C)cc21 [Compound 11g-10, 5-(4-fluorophenoxy)-1-isobutyl-1H-indazole-6-carboxylic acid (2-dimethylaminoethyl)-amide] | active | active
4 | CC(C)Cn1ncc2cc(Nc3ccc(F)cc3F)ccc21 [Compound 2h-1, (2,4-difluorophenyl)-(1-isobutyl-1H-indazol-5-yl)-amine] | active | active
5 | CC(C)Cn1ncc2cc(C(O)c3ccc(F)cc3)ccc21 (stereo not drawn) [Compound 4f-2, (4-fluorophenyl)-(1-isobutyl-1H-indazol-5-yl)-methanol] | active | active
6 | CC(C)Cn1ncc2cc(C(=O)c3ccc(Cl)cc3F)ccc21 [Compound 5f-7, (4-chloro-2-fluorophenyl)-(1-isobutyl-1H-indazol-5-yl)-methanone] | active | active
7 | CC(C)Cn1ncc2cc(C(=O)c3ccc(F)cc3F)ccc21 [Compound 5f-1, (2,4-difluorophenyl)-(1-isobutyl-1H-indazol-5-yl)-methanone] | active | active
8 | CC(C)Cn1ncc2cc(C(O)c3ccc(F)cc3F)ccc21 (stereo not drawn) [Compound 4f-1, (2,4-difluorophenyl)-(1-isobutyl-1H-indazol-5-yl)-methanol] | active | active
9 | Cc1ccccc1C(=O)c1ccc2c(cnn2CC(C)C)c1 [Compound 5f-10, (1-isobutyl-1H-indazol-5-yl)-O-tolyl-methanone] | active | active
10 | CC(C)Cn1ncc2cc(C(=O)c3ccc(F)cc3)ccc21 [Compound 5f-2, (4-fluorophenyl)-(1-isobutyl-1H-indazol-5-yl)-methanone] | active | active
11 | CC(C)Cn1ncc2cc(Nc3ccc(F)cc3)ccc21 [Compound 2h-2, (4-fluorophenyl)-(1-isobutyl-1H-indazol-5-yl)-amine] | active | active
12 | Cc1ccccc1Nc1ccc2c(cnn2CC(C)C)c1 [Compound 2h-10, (1-isobutyl-1H-indazol-5-yl)-O-tolyl-amine] | active | active
